Drawing on US10610520B2, “Heterocyclic compound” (Takeda Pharmaceutical Company Limited, priority 2016, dated 2020), this text covers inhibition for 31 compounds.

The assay addresses T1, His-hMAGL (recombinant polyhistidine tagged human MAGL protein) (Homo sapiens, UniProt Q99685).
T1 construct: made in house; host or cells: E. coli BL21(DE3)
T1 sequence (Q99685 1-303): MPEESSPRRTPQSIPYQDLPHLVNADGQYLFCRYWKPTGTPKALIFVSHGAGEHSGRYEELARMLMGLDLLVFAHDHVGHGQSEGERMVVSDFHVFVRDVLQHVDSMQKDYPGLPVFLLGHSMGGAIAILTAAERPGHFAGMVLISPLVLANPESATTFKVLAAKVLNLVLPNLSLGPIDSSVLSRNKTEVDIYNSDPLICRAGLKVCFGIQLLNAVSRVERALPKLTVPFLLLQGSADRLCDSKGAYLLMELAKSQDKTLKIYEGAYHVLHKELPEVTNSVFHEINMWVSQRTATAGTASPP
The assay is described as follows: Measurement of MAGL inhibitory activity (arachidonic acid production from 2-arachidonylglycerol, RapidFire-mass spectrometry). As to conditions: MAGL inhibitory rate, test compound 10 μM, 60 min preincubation, 2-arachidonylglycerol substrate. The class given is biochemical. The method, boiled down: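 Arachidonic acid formed was quantified by online solid-phase extraction and triple-quadrupole MS in negative SRM mode against a d8 internal standard. Reaction: recombinant His-hMAGL (7.5 ng/mL, pH 7.5 Tris buffer with Triton X-100 and BSA) plus 2-AG (5 μL of 150 μM stock) for 10 min at room temperature, quenched with 2% formic acid. Percent inhibition corrected for enzyme-free background.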

What is called inhibition is the relative decrease from the control value, in per cent.

Turning to `O=C1NC2(CO1)CN(C(=O)c1sc3ccc(C(F)(F)F)cc3c1Cl)C2` [Example 258, 2-((3-chloro-5-(trifluoromethyl)-1-benzothiophen-2-yl)carbonyl)-7-oxa-2,5-diazaspiro[3.4]octan-6-one], the inhibition at 10 µM was 100%.

Take `O=C1NC2(CO1)CN(C(=O)c1sc3cc(OC(F)F)ccc3c1Cl)C2` [Example 259, 2-((3-chloro-6-(difluoromethoxy)-1-benzothiophen-2-yl)carbonyl)-7-oxa-2,5-diazaspiro[3.4]octan-6-one]: the inhibition at 10 µM turned out to be 101%.

As for `O=C1CCC2(CN(C(=O)c3sc4cc(OC(F)F)ccc4c3Cl)C2)N1` [Example 260, 2-((3-chloro-6-(difluoromethoxy)-1-benzothiophen-2-yl)carbonyl)-2,5-diazaspiro[3.4]octan-6-one], the inhibition at 10 µM is 100%.

Consider `O=C1NC2(CO1)CN(C(=O)c1sc3cc(OC(F)(F)F)ccc3c1C(F)(F)F)C2` [Example 261, 2-((6-(trifluoromethoxy)-3-(trifluoromethyl)-1-benzothiophen-2-yl)carbonyl)-7-oxa-2,5-diazaspiro[3.4]octan-6-one], for which the inhibition at 10 µM turned out to be 100%.

For `O=C1NC2(CO1)CN(C(=O)c1sc3ccc(OC(F)(F)F)cc3c1Cl)C2` [Example 262, 2-((3-chloro-5-(trifluoromethoxy)-1-benzothiophen-2-yl)carbonyl)-7-oxa-2,5-diazaspiro[3.4]octan-6-one], the inhibition at 10 µM was 101%.

On to `O=C1CCC2(CN(C(=O)c3sc4cc(OC(F)(F)F)ccc4c3C(F)(F)F)C2)N1` [Example 263, 2-((6-(trifluoromethoxy)-3-(trifluoromethyl)-1-benzothiophen-2-yl)carbonyl)-2,5-diazaspiro[3.4]octan-6-one], for which the inhibition at 10 µM turned out to be 98%.

For the compound `O=C1NC2(CO1)CN(C(=O)c1sc3cc(OC(F)(F)F)ccc3c1C(F)F)C2` [Example 264, 2-((3-(difluoromethyl)-6-(trifluoromethoxy)-1-benzothiophen-2-yl)carbonyl)-7-oxa-2,5-diazaspiro[3.4]octan-6-one], the inhibition at 10 µM turned out to be 100%.

With `O=C1CCC2(CN(C(=O)c3sc4cc(OC(F)(F)F)ccc4c3C(F)F)C2)N1` [Example 265, 2-((3-(difluoromethyl)-6-(trifluoromethoxy)-1-benzothiophen-2-yl)carbonyl)-2,5-diazaspiro[3.4]octan-6-one], the inhibition at 10 µM stood at 97%.

`O=C1NC2(CO1)CN(C(=O)c1sc3cccc(OC(F)(F)F)c3c1Cl)C2` [Example 266, 2-((3-chloro-4-(trifluoromethoxy)-1-benzothiophen-2-yl)carbonyl)-7-oxa-2,5-diazaspiro[3.4]octan-6-one]: the inhibition at 10 µM is 101%.

On to `O=C1NC2(CO1)CN(C(=O)c1sc3c(OC(F)(F)F)ccc(F)c3c1Cl)C2` [Example 267, 2-((3-chloro-4-fluoro-7-(trifluoromethoxy)-1-benzothiophen-2-yl)carbonyl)-7-oxa-2,5-diazaspiro[3.4]octan-6-one], for which the inhibition at 10 µM was 101%.

On to `O=C1NC2(CO1)CN(C(=O)c1sc3cccc(C(F)(F)F)c3c1Cl)C2` [Example 268, 2-((3-chloro-4-(trifluoromethyl)-1-benzothiophen-2-yl)carbonyl)-7-oxa-2,5-diazaspiro[3.4]octan-6-one], for which the inhibition at 10 µM was 102%.

Take `O=C1NC2(CO1)CN(C(=O)c1sc3cc(OC(F)(F)F)cc(F)c3c1Cl)C2` [Example 269, 2-((3-chloro-4-fluoro-6-(trifluoromethoxy)-1-benzothiophen-2-yl)carbonyl)-7-oxa-2,5-diazaspiro[3.4]octan-6-one]: the inhibition at 10 µM worked out at 100%.

With `COc1c(C(=O)N2CC3(COC(=O)N3)C2)sc2c(C(F)(F)F)cccc12` [Example 270, 2-((3-methoxy-7-(trifluoromethyl)-1-benzothiophen-2-yl)carbonyl)-7-oxa-2,5-diazaspiro[3.4]octan-6-one], the inhibition at 10 µM amounted to 100%.

For the compound `O=C1NC2(CO1)CN(C(=O)c1sc3c(C(F)(F)F)cccc3c1OCC(F)(F)F)C2` [Example 271, 2-((3-(2,2,2-trifluoroethoxy)-7-(trifluoromethyl)-1-benzothiophen-2-yl)carbonyl)-7-oxa-2,5-diazaspiro[3.4]octan-6-one], the inhibition at 10 µM was determined as 100%.

Regarding `O=C1NC2(CO1)CN(C(=O)c1sc3c(C(F)(F)F)cccc3c1OC(F)F)C2` [Example 272, 2-((3-(difluoromethoxy)-7-(trifluoromethyl)-1-benzothiophen-2-yl)carbonyl)-7-oxa-2,5-diazaspiro[3.4]octan-6-one], the inhibition at 10 µM worked out at 100%.

`O=C1COCC2(CCN(C(=O)c3sc4cc(OC(F)(F)F)ccc4c3Cl)C2)N1` (stereo not shown) [Example 273, 2-((3-chloro-6-(trifluoromethoxy)-1-benzothiophen-2-yl)carbonyl)-9-oxa-2,6-diazaspiro[4.5]decan-7-one]: the inhibition at 10 µM came to 100%.

With `CC1(c2cccc(-c3ccc(C(=O)N4CC5(COC(=O)N5)C4)cc3F)c2)CC1` [Example 274, 2-((2-fluoro-3′-(1-methylcyclopropyl)biphenyl-4-yl)carbonyl)-7-oxa-2,5-diazaspiro[3.4]octan-6-one], the inhibition at 10 µM worked out at 101%.

With `O=C1NC2(CO1)CN(C(=O)c1sc3ccc(C(F)(F)F)cc3c1C(F)F)C2` [Example 275, 2-((3-(difluoromethyl)-5-(trifluoromethyl)-1-benzothiophen-2-yl)carbonyl)-7-oxa-2,5-diazaspiro[3.4]octan-6-one], the inhibition at 10 µM was determined as 100%.

In the case of `O=C1COCC2(CCN(C(=O)N3CCC(COc4ccc(F)cc4Cl)CC3)C2)N1` (stereo not shown) [Example 276, 2-((4-((2-chloro-4-fluorophenoxy)methyl)piperidin-1-yl)carbonyl)-9-oxa-2,6-diazaspiro[4.5]decan-7-one], the inhibition at 10 µM is 99%.

Consider `O=C1NC2(CO1)CN(C(=O)c1sc3c(C(F)(F)F)cccc3c1C(F)F)C2` [Example 277, 2-((3-(difluoromethyl)-7-(trifluoromethyl)-1-benzothiophen-2-yl)carbonyl)-7-oxa-2,5-diazaspiro[3.4]octan-6-one], for which the inhibition at 10 µM turned out to be 101%.

Regarding `O=C1NC2(CO1)CN(C(=O)c1sc3cc(C(F)F)ccc3c1Cl)C2` [Example 278, 2-((3-chloro-6-(difluoromethyl)-1-benzothiophen-2-yl)carbonyl)-7-oxa-2,5-diazaspiro[3.4]octan-6-one], the inhibition at 10 µM came out at 101%.

With `O=C1NC2(CO1)CN(C(=O)c1sc3c(F)c(OC(F)(F)F)ccc3c1Cl)C2` [Example 279, 2-((3-chloro-7-fluoro-6-(trifluoromethoxy)-1-benzothiophen-2-yl)carbonyl)-7-oxa-2,5-diazaspiro[3.4]octan-6-one], the inhibition at 10 µM is 100%.

Regarding `O=C1NC2(CO1)CN(C(=O)c1sc3cc(OC(F)(F)F)c(F)cc3c1Cl)C2` [Example 280, 2-((3-chloro-5-fluoro-6-(trifluoromethoxy)-1-benzothiophen-2-yl)carbonyl)-7-oxa-2,5-diazaspiro[3.4]octan-6-one], the inhibition at 10 µM was found to be 101%.

On to `CC1(c2cccc(-c3cc(Cl)c(C(=O)N4CC5(COC(=O)N5)C4)s3)c2)CC1` [Example 281, 2-((3-chloro-5-(3-(1-methylcyclopropyl)phenyl)-2-thienyl)carbonyl)-7-oxa-2,5-diazaspiro[3.4]octan-6-one], for which the inhibition at 10 µM was determined as 100%.

On to `O=C1NC2(CCO1)CN(C(=O)c1sc3cc(OC(F)(F)F)ccc3c1Cl)C2` [Example 282, 2-((3-chloro-6-(trifluoromethoxy)-1-benzothiophen-2-yl)carbonyl)-7-oxa-2,5-diazaspiro[3.5]nonan-6-one], for which the inhibition at 10 µM is 99%.

Regarding `O=C1NC2(CCO1)CN(C(=O)c1sc3cccc(OC(F)(F)F)c3c1Cl)C2` [Example 283, 2-((3-chloro-4-(trilfuoromethoxy)-1-benzothiophen-2-yl)carbonyl)-7-oxa-2,5-diazaspiro[3.5]nonan-6-one], the inhibition at 10 µM was 99%.

For the compound `COc1cc(F)c2c(Cl)c(C(=O)N3CC4(COC(=O)N4)C3)sc2c1` [Example 284, 2-((3-chloro-4-fluoro-6-methoxy-1-benzothiophen-2-yl)carbonyl)-7-oxa-2,5-diazaspiro[3.4]octan-6-one], the inhibition at 10 µM worked out at 101%.

With `O=C1NC2(CO1)CN(C(=O)c1sc3cc(Br)cc(F)c3c1Cl)C2` [Example 285, 2-((6-bromo-3-chloro-4-fluoro-1-benzothiophen-2-yl)carbonyl)-7-oxa-2,5-diazaspiro[3.4]octan-6-one], the inhibition at 10 µM came to 100%.

Take `Cc1c(OC(F)(F)F)ccc2c(Cl)c(C(=O)N3CC4(COC(=O)N4)C3)sc12` [Example 286, 2-((3-chloro-7-methyl-6-(trifluoromethoxy)-1-benzothiophen-2-yl)carbonyl)-7-oxa-2,5-diazaspiro[3.4]octan-6-one]: the inhibition at 10 µM amounted to 100%.

For the compound `O=C1NC2(CO1)CN(C(=O)c1sc3cc(OCC(F)(F)F)ccc3c1Cl)C2` [Example 287, 2-((3-chloro-6-(2,2,2-trifluoroethoxy)-1-benzothiophen-2-yl)carbonyl)-7-oxa-2,5-diazaspiro[3.4]octan-6-one], the inhibition at 10 µM stood at 101%.

On to `O=C1NC2(CO1)CN(C(=O)c1sc3ccccc3c1Cl)C2` [Example 288, 2-((3-chloro-1-benzothiophen-2-yl)carbonyl)-7-oxa-2,5-diazaspiro[3.4]octan-6-one], for which the inhibition at 10 µM is 100%.
